From patent US7129379B2, “3-amino-propoxphenyl derivatives (l)” (William John Louis, Austin and Repatriation Medical Centre, priority 1996, dated 2006)

What was measured:
[1] = tested on: β1 adrenoreceptor (guinea-pig atria); experiment: Isoprenaline dose-response in isolated guinea-pig atria (pA2); settings: β1 (atria) versus β2 (trachea), from the pA2 values
Excerpt: (§1) Tissue preparation: The animals are killed by a rapid blow to the head followed by cervical dislocation. The chest is opened and the heart and trachea removed and placed in carbonated Krebs-Ringer-Bicarbonate solution (Krebs). Blood is carefully massaged from the chambers of the heart (see L. H. Tung, G. P. Jackman, B. Campbell, S. Louis, D. Iakovidis & W J Louis, J. Cardiovasc. Pharmacol, 21, (2), 484–488, 1993).
(§2) All extraneous tissue is carefully dissected from the heart, and the atria is dissected from the ventricles. A suture with a loop is tied to each atrium and used to suspend the tissue from an organ bath rod. The other loop is attached to a force transducer loaded with 1 g force. The atria are then maintained in the bath with oxygenated (5% Carbogen) Krebs at 37° C. with changes of Krebs at 10 minute intervals for 50 min. Isoprenaline dose response curves are then measured by addition of isoprenaline in increasing doses from 10^−11 M until a plateau in the response is observed (ca 10^−5.5 M). Doses are increased at two minute intervals and maximum force of contraction and heart rate are recorded. At the end of the dose response curve, the organ bath is flushed with fresh Krebs and washed three times every 10 minutes for 50 minutes. The dose of test drug is then added to the organ bath and allowed to equilibrate for 10 minutes. The isoprenaline does-response curve is then repeated. After washing the atria with Krebs for a further 50 minutes as before, the control does-response curve is repeated in the absence of drug.
(§3) The data is used to calculate the pA2 values against atria and trachea (see Mackay, J. Pharm. Pharmacol., 30, 312–313, 1978). […] The ratio of the values indicates the selectivity of each compound.

[2] = target: T1, β1 adrenoreceptor (guinea-pig atria) (Cavia porcellus, UniProt H0W3H1); experiment: as above; settings: isolated guinea-pig atria, antagonism of isoprenaline, 37° C.; for Kb: read-out: Guinea Pig, pA2 Atria, B1 (converted)
T1 construct: the atria is dissected from the ventricles; from tissue; host or cells: isolated guinea-pig atria (organ bath)
T1 sequence (H0W3H1 1-470): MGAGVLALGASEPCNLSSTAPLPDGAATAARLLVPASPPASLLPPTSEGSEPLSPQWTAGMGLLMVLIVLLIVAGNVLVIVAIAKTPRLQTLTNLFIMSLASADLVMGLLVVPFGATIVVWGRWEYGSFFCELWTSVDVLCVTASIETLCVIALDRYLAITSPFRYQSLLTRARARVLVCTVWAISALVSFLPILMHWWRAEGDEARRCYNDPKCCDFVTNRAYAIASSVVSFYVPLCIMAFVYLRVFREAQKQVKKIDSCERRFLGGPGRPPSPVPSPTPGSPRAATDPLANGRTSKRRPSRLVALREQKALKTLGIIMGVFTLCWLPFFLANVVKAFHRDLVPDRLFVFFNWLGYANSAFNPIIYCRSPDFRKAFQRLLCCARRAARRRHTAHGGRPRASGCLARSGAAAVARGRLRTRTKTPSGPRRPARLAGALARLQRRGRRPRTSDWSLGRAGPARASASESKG
Excerpt: as §1, §2, §3

[3] = target: T2, β2 adrenoreceptor (guinea-pig trachea) (Cavia porcellus, UniProt Q8K4Z4); experiment: Isoprenaline relaxation of carbachol-contracted isolated guinea-pig trachea (pA2); settings: isolated guinea-pig tracheal rings, carbachol 10^-6 M contraction, 37° C.; for Kb: read-out: Guinea Pig, pA2 Trachea, B2 (converted)
T2 construct: five rings 1–2 mm in width are cut from the trachea; from tissue; host or cells: isolated guinea-pig tracheal rings (organ bath)
T2 sequence (Q8K4Z4 whole entry): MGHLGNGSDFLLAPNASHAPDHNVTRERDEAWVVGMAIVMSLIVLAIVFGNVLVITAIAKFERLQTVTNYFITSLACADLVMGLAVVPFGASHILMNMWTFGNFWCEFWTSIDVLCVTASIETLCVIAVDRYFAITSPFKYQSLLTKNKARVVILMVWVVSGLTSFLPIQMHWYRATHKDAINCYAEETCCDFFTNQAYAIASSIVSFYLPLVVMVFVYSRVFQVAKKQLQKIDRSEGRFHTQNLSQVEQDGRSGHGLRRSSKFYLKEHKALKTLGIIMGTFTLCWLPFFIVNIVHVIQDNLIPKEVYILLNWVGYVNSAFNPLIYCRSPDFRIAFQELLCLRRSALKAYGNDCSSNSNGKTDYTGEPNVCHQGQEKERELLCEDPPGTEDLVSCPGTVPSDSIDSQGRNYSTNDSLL
Excerpt: as §1
All extraneous tissue is dissected away and five rings 1–2 mm in width are cut from the trachea and mounted in sequence on loose loops. The rings are suspended from an isometric transducer set at a resting force of 1.0 g. The rings are then incubated in an organ bath at 37° C. in oxygenated (5% Carbogen) Krebs with 3 changes of Krebs every 10 min for 50 min. Carbachol 10^−6 M is then added to the bath to induce a contraction. Once the contractile force is stable, relaxation is induced by addition of increasing doses of isoprenaline (10^−8 to 10^−5 M) to produce the control dose-response curve. The tissue is then washed in three changes of Krebs every 10 min for 50 min before addition of the drug. After 10 minutes incubation carbachol is added once more and a fresh dose-response to isoprenaline measured. After a further wash of 50 min the control curve is repeated.
as §3

[4] = Duration of beta blockade after intravenous infusion in conscious rats (heart rate response to isoprenaline); assay type: in vivo, Sprague-Dawley rats; settings: Sprague-Dawley, rat, plasma, iv; conscious male rats, after stopping i.v. infusion; time for inhibition of isoprenaline heart rate response to fall by 50%; read-out: Estimated Plasma Half Life
Procedure: (§4) Healthy male Sprague-Dawley rats were prepared under anaesthesia with indwelling catheters in the carotid artery and jugular vein and allowed to recover for at least 24 h. On the day of the experiment, the arterial catheter was attached to a flexible swivel and then to a pressure transducer for the continuous recording of heart rate and blood pressure. The venous catheters were attached to an infusion pump for drug administration or to a syringe for bolus injections of isoprenaline ([…]). The catheters were suspended out of the animal's way and the rat was allowed to move freely in a small covered enclosure isolated from outside disturbance. When the BP and HR were stable isoprenaline boluses were given at intervals of 10 minutes until the maximum responses in HR were reproducible (±10%). The doses were repeated for at least 40 minutes and the last 5 readings were considered to constitute the baseline response. The doses were continued at the same interval throughtout the test period of a further 150 minutes. Approximately 3.5 minutes before the next dose of isoprenaline the infusion of the test compound was started, to allow for dead volume in the infusion line, and continued for a further 33.5 minutes.
(§5) Rats were used for more than one experiment if their catheters remained patent with daily flushing with heparinised saline, but at least 24 hours separated each experiment.
(§6) Thus rats with the left carotid artery and left jugular vein cannulated can be studied in the conscious state. This allows continuous recording of heart rate and blood pressure before and after intravenous infusions of beta blocking drugs in selected doses. The duration of beta blockade following cessation of an intravenous infusion of a beta blocking drug can be followed by studying the time taken for the increase in heart rate produced by a standard dose of isoprenaline to return to control values following cessation of the beta blocking drug infusion. The maximum recorded inhibition of the heart rate response to isoprenaline during the infusion of the test drug is estimated, and the pharmacodynamic half-life is the time taken for this inhibition to fall by 50% following the cessation of infusion of the drug.
(§7) The half-life of action of the compounds in the systemic circulation as determined as described above in vivo in rats is indicated in Table 3.

[5] = tested on: heart rate response to isoprenaline; experiment: as above; assay type: in vivo, Sprague-Dawley rats; settings: conscious male rats, after stopping i.v. infusion; time for inhibition of isoprenaline heart rate response to fall by 50%
Procedure: as §4, §5, §6, §7

SMILES | Kb [2] [nM] | Kb [3] [nM] | melting point [°C] | Selectivity [1] | half-life [4] [min] | Guinea Pig, pA2 Atria, B1 [2] | Guinea Pig, pA2 Trachea, B2 [3] | Estimated Plasma Half Life [5] [min]
COCCOc1ccc(OCC(O)CNCCOc2ccc(OC)cc2)cc1 (racemic) [Example 5, 1-(4-(2-methoxyethoxy)phenoxy)-2-hydroxy-3-(2-(4-methoxyphenoxy)ethylamino)propane] | 100 | 50100 | 113 to 115 | 501 | 10 to 20 |  |  | 
CCOCCOc1ccc(OC[C@@H](O)CNCCc2ccc(OC)c(OC)c2)cc1 [Example 1, S(−)-1-(4-(2-ethoxyethoxy)phenoxy)-2-hydroxy-3-(2-(3,4-dimethoxyphenyl)ethylamino)propane] |  |  |  | 2512 |  | 7.7 | 4.3 | 10 to 20

Continued, in another order:

Kb [2] [nM] | Kb [3] [nM] | melting point [°C] | SMILES | Selectivity [1] | half-life [4] [min] | Guinea Pig, pA2 Atria, B1 [2] | Guinea Pig, pA2 Trachea, B2 [3] | Estimated Plasma Half Life [5] [min]
39.8 | 39800 | 69 to 71 | COc1ccc(OCCNCC(O)COc2ccc(OCCOCC(C)C)cc2C#N)cc1 (racemic) [Example 2, 1-(2-cyano-4-(2-(2-methylpropoxy)ethoxy)phenoxy)-2-hydroxy-3-(2-(4-methoxyphenoxy)ethylamino)propane] | 1000 | ~17 |  |  | 
50.1 | 39800 | 84 to 86 | COc1ccc(CCNCC(O)COc2ccc(OCCOCC3CC3)cc2C#N)cc1OC (racemic) [Example 4, 1-(2-cyano-4-(2-cyclopropylmethoxyethoxy)phenoxy)-2-hydroxy-3-(2-(3,4-dimethoxyphenyl)ethylamino)propane] | 794 | ~15 |  |  | 
63.1 | > 31600 | 140 to 143 | CCOCCOc1ccc(OCC(O)CNCCc2ccc(OC)c(OC)c2)cc1 (racemic) [Example 7, 1-(4-(2-ethoxyethoxy)phenoxy)-2-hydroxy-3-(2-(3,4-dimethoxyphenyl)ethylamino)propane] | >501 | ~10 |  |  | 
